PubChem BioAssay (NCI)
“And” between values parts separate entries of the source, which are not always exact repeats. Equal entries are not always repeated.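 Step 1: Grow cells in 96-well plates. Step 2: Expose to compound for 48 hours at 5 concentrations. Step 3: Interpolate endpoints linearly; if unreached, use highest concentration. The concentration for 50% growth inhibition is given as GI50. The concentration for full growth arrest is given as TGI.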

Tests used:
Experiment in all cases: NCI-60 cell line screen, 48 h
[1] = test system: NCI-H460 lung
[2] = test system: ACHN renal
[3] = test system: SK-OV-3 ovarian
[4] = test system: SR leukemia
[5] = test system: OVCAR-5 ovarian
[6] = test system: MCF7 breast
[7] = test system: CAKI-1 renal
[8] = test system: MDA-MB-435
[9] = test system: PC-3 prostate
[10] = test system: NCI-H522 lung

Row | Compound | GI50 [1] | TGI [1] | GI50 [2] | TGI [2] | GI50 [3] | TGI [3] | GI50 [4] | TGI [4] | GI50 [5] | TGI [5] | GI50 [6] | TGI [6] | GI50 [7] | TGI [7] | GI50 [8] | TGI [8] | GI50 [9] | TGI [9] | GI50 [10] | TGI [10]
1 | COC1CC2CCC(C)C(O)(O2)C(=O)C(=O)N2CCCCC2C(=O)OC(C(C)CC2CCC(O)C(OC)C2)CC(=O)C(C)C=C(C)C(O)C(OC)C(=O)C(C)CC(C)/C=C/C=C/C=C1C (centres undefined) | < 0.005 µM | 11.5 µM | 2.55 µM | 21.1 µM | < 0.005 µM | 10.7 µM | < 0.005 µM | 15.2 µM | 6.41 µM | 14.3 µM | < 0.005 µM | 14.6 µM | 2.58 µM | 47.8 µM | 0.838 µM | 14.9 µM | < 0.005 µM | 13 µM | 1.99 µM | 11.3 µM
2 | COC(=O)C1=C(C(=O)ON)C2C=CC1(C(Cc1ccccc1)Nc1ccccc1)O2 (centres undefined) | 18 µM | 40.7 µM | 1.63 µM | 2.99 µM | 14.8 µM | 28 µM | 2.67 µM | 43.6 µM | 3.27 µM | 12.1 µM | 2.42 µM | 6.59 µM | 1.63 µM | 3.03 µM | 1.92 µM | 3.86 µM | 5.58 µM | 19.9 µM | 1.45 µM | 2.98 µM
3 | COc1cc(C)c(Cl)cc1C1=NN(c2ccc(S(N)(=O)=O)cc2)C(/C=C/c2ccccc2)C1 (centres undefined) | 2.43 µM | 6.3 µM | 3.2 µM | 13.3 µM | 3.74 µM | 16.2 µM | 3.06 µM | 8.91 µM | 4.04 µM | 57.3 µM | 2.55 µM | 9.13 µM | 2.7 µM | 19.1 µM | 2.65 µM | 8.4 µM | 3.11 µM | 13.8 µM | 2.3 µM | 5.34 µM
4 | COc1ncc(-c2ccc3nccc(-c4ccnnc4)c3c2)cc1NS(=O)(=O)c1ccc(F)cc1F | 0.00406 µM and < 0.01 µM | > 10 µM and 15.3 µM | 0.0104 µM and < 0.0114 µM | > 74.3 µM | 0.00188 µM and < 0.01 µM | 0.0204 µM and 0.0377 µM | 0.0169 µM and 0.0203 µM | 0.499 µM and 0.345 µM | 0.00728 µM and < 0.01 µM | > 10 µM and 2.76 µM | 0.00101 µM and < 0.01 µM | > 10 µM and 11 µM | 0.00521 µM and < 0.01 µM | 0.746 µM and 1.7 µM | 0.0105 µM and < 0.0117 µM | 1.13 µM and 0.863 µM | 0.00432 µM and < 0.01 µM | 2.37 µM and 4.46 µM | 0.0147 µM and < 0.0104 µM | 2.16 µM and 2.58 µM
5 | CC1=C2C[C@H]3[C@@H](CC[C@@H]4CC(NS(C)(=O)=O)CC[C@@]43C)[C@@H]2CC[C@@]2(C1)O[C@@H]1C[C@H](C)CN[C@H]1[C@H]2C (some centres undefined) | 4.81 µM | 16 µM | 3.85 µM | 14.6 µM | 8.49 µM | 21.2 µM | 3.38 µM | 12 µM | 13.7 µM | 27.5 µM | 3.49 µM | 14.9 µM | 7.63 µM | 22 µM | 8.1 µM | 22.8 µM | 4.39 µM | 17.3 µM | 14.3 µM | 29 µM
6 | CCOC(=O)c1[nH]c(Br)c(-c2ccc(Br)cc2)c1Br |  | > 100 µM | 0.929 µM | 3.63 µM and 8.45 µM | 0.967 µM | 6.28 µM | 0.199 µM | 11.1 µM | 5.77 µM | > 100 µM | 0.895 µM | > 100 µM | 0.49 µM | 3.06 µM and 2.62 µM | 0.0997 µM | 0.546 µM and 0.289 µM | 1.25 µM | 15.5 µM | 0.178 µM | 3.42 µM and 0.52 µM
7 | COC(=O)c1c2c(c(C)[n+]([O-])c1C)C(=O)C=C(NCc1ccc(F)c(Cl)c1)C2=O | 0.264 µM | 1.4 µM | 0.126 µM | 1.81 µM | 1.51 µM | 3.38 µM | 0.381 µM | 6.73 µM | 1.16 µM | 2.69 µM | 0.169 µM | 0.892 µM | 0.0559 µM | 1.9 µM | 0.0515 µM | 0.173 µM | 0.245 µM | 4.02 µM | 0.266 µM | 1.7 µM
8 | C#CCC(Cc1cnc2nc(N)nc(N)c2n1)c1ccc(C(=O)N[C@@H](CCC(=O)O)C(=O)O)cc1 (some centres undefined) | < 0.01 µM | > 100 µM | < 0.01 µM | > 100 µM | < 0.01 µM | > 100 µM | < 0.01 µM | > 100 µM | < 0.01 µM | > 100 µM | < 0.01 µM | > 100 µM | < 0.01 µM | > 100 µM | < 0.01 µM | > 100 µM | < 0.01 µM | > 100 µM | < 0.01 µM | > 100 µM
9 | CC(C)(C)c1nn(-c2ccccc2)c2c1C(=O)CSC(c1ccccc1Cl)N2 (centres undefined) | 2.8 µM | 12.4 µM | 4.87 µM | 19.3 µM | 1.78 µM | 6.17 µM | 0.413 µM | 9.89 µM | 3.18 µM | 13.1 µM | 1.03 µM | 13.5 µM | 1.24 µM | 22.2 µM | 0.304 µM | 1.31 µM | 1.62 µM | 16.5 µM | 0.65 µM | 7.34 µM
10 | COc1ccc(/C=C/C(=O)c2ccc(SC)cc2)cc1OC | 70.6 µM | > 100 µM | 11.7 µM | 27.6 µM | 34.1 µM | > 100 µM | 3.06 µM | 42.9 µM | 16.4 µM | 31.7 µM | > 100 µM | > 100 µM | 7.5 µM | 25.6 µM | 3.44 µM | 13.4 µM | 11.5 µM | 25.6 µM | 5 µM | 27.4 µM
11 | O=C(c1ccco1)c1nc2cc(Cl)ccc2[n+]([O-])c1C(F)(F)F | 57 µM | > 100 µM | 51.2 µM | > 100 µM | > 100 µM | > 100 µM | 17.1 µM | 44.3 µM | > 100 µM | > 100 µM | 41 µM | > 100 µM | 28.3 µM | 73.9 µM | > 100 µM | > 100 µM | 13.7 µM | 41.4 µM | 45.1 µM | > 100 µM
12 | COc1cc(-c2nn(-c3cccc(NC(=O)Nc4cc(C(F)(F)F)cc(C(F)(F)F)c4)c3)cc2-c2ccncc2)ccc1Cl | 0.366 µM | 1.64 µM | 0.309 µM | 16.9 µM | 1.16 µM | 2.87 µM | 0.8 µM | 2.99 µM | 1.09 µM | 3.54 µM | 0.563 µM | 8.59 µM | 0.852 µM | 2.93 µM | 0.772 µM | 1.85 µM | 0.176 µM | 1.18 µM | 0.356 µM | 1.43 µM
